Read-outs that look alike come from different tables or passages of the source.
Legend:
[1] = tested on: FLT3(ITD, F691L); test: KINOMEscan; assay type: binding; details: 10000 nM
[2] = molecular target: DDR1 (Homo sapiens (Human), UniProt Q08345); test: KINOMEscan; assay type: binding; details: DDR1, 10000 nM; read-out: Percent Control
[3] = molecular target: PAK4 (Homo sapiens (Human), UniProt O96013); test: KINOMEscan; assay type: binding; details: PAK4, 10000 nM; read-out: Percent Control
[4] = molecular target: FLT3(D835H) (Homo sapiens (Human), UniProt P36888, D835H); test: KINOMEscan; assay type: binding; details: 10000 nM, read-out: Percent Control
[5] = molecular target: BRSK2 (Homo sapiens (Human), UniProt Q8IWQ3); test: KINOMEscan; assay type: binding; details: BRSK2, 10000 nM; read-out: Percent Control
[6] = molecular target: ABL1(H396P)-phosphorylated (Homo sapiens (Human), UniProt P00519, H396P); test: KINOMEscan; assay type: binding; details: 10000 nM, read-out: Percent Control
[7] = tested on: MDA-MB-231 cells; test: 2D-adherent monolayer cell viability (Cell Titer-Glo), 120 hrs; assay type: cell-based; details: Homo sapiens
Procedure: For 2D-adherent monolayer experiments, MDA-MB-231 cells were plated in 384-well format and allowed to adhere overnight. Cells were treated with indicated molecules from compound stock plates using a JANUS® Workstation pin tool for 120 hrs. To measure cell viability, Cell Titer-Glo® was added to wells for 15 minutes at room temperature and luminescence was measured on an EnVision™ 2104 Multilabel Plate Reader.
Inventive compound treatment (0.00063-20 μM) led to antiproliferative effects in MDA-MB-231 cells cultured as 2D-adherent monolayers or as ultra-low adherent 3D-spheroid suspensions (Table 5).

[8] = molecular target: MKK7 (Homo sapiens (Human), UniProt O14733); test: KINOMEscan; assay type: binding; details: MKK7, 10000 nM; read-out: Percent Control
[9] = molecular target: GRK2 (Homo sapiens (Human), UniProt P25098); test: KINOMEscan; assay type: binding; details: GRK2, 10000 nM; read-out: Percent Control
[10] = molecular target: YSK4 (Homo sapiens (Human), UniProt Q56UN5); test: KINOMEscan; assay type: binding; details: YSK4, 10000 nM; read-out: Percent Control
[11] = molecular target: ABL2 (Homo sapiens (Human), UniProt P42684); test: KINOMEscan; assay type: binding; details: ABL2, 10000 nM; read-out: Percent Control
[12] = molecular target: RAF1 (Homo sapiens (Human), UniProt P04049); test: KINOMEscan; assay type: binding; details: RAF1, 10000 nM; read-out: Percent Control
[13] = molecular target: CDK3 (Homo sapiens (Human), UniProt Q00526); test: KINOMEscan; assay type: binding; details: CDK3, 10000 nM; read-out: Percent Control
[14] = molecular target: ERK8 (Homo sapiens (Human), UniProt Q8TD08); test: KINOMEscan; assay type: binding; details: ERK8, 10000 nM; read-out: Percent Control
[15] = molecular target: RIOK2 (Homo sapiens (Human), UniProt Q9BVS4); test: KINOMEscan; assay type: binding; details: RIOK2, 10000 nM; read-out: Percent Control
[16] = molecular target: MAPKAPX5 (Homo sapiens (Human), UniProt Q8IW41); test: KINOMEscan; assay type: binding; details: read-out: Percent Control
[17] = molecular target: EPHB3 (Homo sapiens (Human), UniProt P54753); test: KINOMEscan; assay type: binding; details: EPHB3, 10000 nM; read-out: Percent Control
[18] = molecular target: ABL1(M351T)-phosphorylated (Homo sapiens (Human), UniProt P00519, M351T); test: KINOMEscan; assay type: binding; details: 10000 nM, read-out: Percent Control
[19] = molecular target: LIMK2 (Homo sapiens (Human), UniProt P53671); test: KINOMEscan; assay type: binding; details: LIMK2, 10000 nM; read-out: Percent Control
[20] = molecular target: EPHA3 (Homo sapiens (Human), UniProt P29320); test: KINOMEscan; assay type: binding; details: EPHA3, 10000 nM; read-out: Percent Control
[21] = molecular target: TGFBR2 (Homo sapiens (Human), UniProt P37173); test: KINOMEscan; assay type: binding; details: TGFBR2, 10000 nM; read-out: Percent Control
[22] = molecular target: FGR (Homo sapiens (Human), UniProt P09769); test: KINOMEscan; assay type: binding; details: 10000 nM, read-out: Percent Control
[23] = tested on: 403 non-mutant kinases; test: KINOMEscan panel selectivity (S-Score, number of kinases engaged); assay type: binding; details: 10 μM; for S-Score (35): non-mutant kinases below 35% control divided by kinases examined
Procedure: Selectivity profiling of compound 3 among a panel of kinases was performed with KINOMEscan® as set forth below. The KINOMEscan® screening platform employs an active site-directed competition binding assay to quantitatively measure interactions between a test compound, e.g., compound 3, and more than 450 kinases and disease-relevant mutant variants.
Screening of compound 3 was conducted at a concentration of 10 μM by Eurofins DiscoverX. Activity is measured as the ability of compound 3 to displace the kinase from a solid support relative to a negative control (i.e., DMSO). The output is % control.
The selectivity score (S-Score) refers to the number of non-mutant kinases that display a % control below a specific number, divided by the number of non-mutant kinases that were examined.
Selectivity profiling of compound 5 among a panel of kinases was performed with KINOMEscan® as set forth below.

[24] = molecular target: AXL (Homo sapiens (Human), UniProt P30530); test: KINOMEscan; assay type: binding; details: 10000 nM, read-out: Percent Control
[25] = molecular target: MAPKAPK2 (Homo sapiens (Human), UniProt P49137); test: KINOMEscan; assay type: binding; details: MAPKAPK2, 10000 nM; read-out: Percent Control
[26] = molecular target: CDK2 (Homo sapiens (Human), UniProt P24941); test: KINOMEscan; assay type: binding; details: CDK2, 10000 nM; read-out: Percent Control
[27] = molecular target: LTK (Homo sapiens (Human), UniProt P29376); test: KINOMEscan; assay type: binding; details: 10000 nM, read-out: Percent Control
Chain of LTK (P29376 17-864): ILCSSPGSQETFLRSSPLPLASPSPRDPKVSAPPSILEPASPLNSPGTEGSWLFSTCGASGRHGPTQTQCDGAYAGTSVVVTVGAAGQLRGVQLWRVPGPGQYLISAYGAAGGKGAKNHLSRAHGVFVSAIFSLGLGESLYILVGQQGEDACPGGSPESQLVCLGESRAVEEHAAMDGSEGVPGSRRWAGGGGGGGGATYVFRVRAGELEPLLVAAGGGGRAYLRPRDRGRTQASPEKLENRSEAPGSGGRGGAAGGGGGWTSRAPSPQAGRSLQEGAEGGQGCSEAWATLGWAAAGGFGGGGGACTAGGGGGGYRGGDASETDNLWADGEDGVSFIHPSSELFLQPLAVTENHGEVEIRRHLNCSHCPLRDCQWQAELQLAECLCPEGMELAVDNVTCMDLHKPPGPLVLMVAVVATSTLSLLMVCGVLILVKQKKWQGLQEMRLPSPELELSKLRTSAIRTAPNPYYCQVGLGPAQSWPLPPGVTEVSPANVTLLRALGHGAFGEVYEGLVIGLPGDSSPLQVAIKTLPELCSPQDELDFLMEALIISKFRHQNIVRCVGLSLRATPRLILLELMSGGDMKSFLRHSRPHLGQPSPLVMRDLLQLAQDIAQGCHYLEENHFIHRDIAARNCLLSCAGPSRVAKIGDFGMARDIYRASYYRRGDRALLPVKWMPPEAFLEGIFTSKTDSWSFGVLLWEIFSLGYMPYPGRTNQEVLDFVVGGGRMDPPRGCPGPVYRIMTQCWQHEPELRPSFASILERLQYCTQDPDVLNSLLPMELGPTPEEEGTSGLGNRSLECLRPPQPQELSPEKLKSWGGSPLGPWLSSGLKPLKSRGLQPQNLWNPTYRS

Chain of LIMK2 (P53671 whole entry): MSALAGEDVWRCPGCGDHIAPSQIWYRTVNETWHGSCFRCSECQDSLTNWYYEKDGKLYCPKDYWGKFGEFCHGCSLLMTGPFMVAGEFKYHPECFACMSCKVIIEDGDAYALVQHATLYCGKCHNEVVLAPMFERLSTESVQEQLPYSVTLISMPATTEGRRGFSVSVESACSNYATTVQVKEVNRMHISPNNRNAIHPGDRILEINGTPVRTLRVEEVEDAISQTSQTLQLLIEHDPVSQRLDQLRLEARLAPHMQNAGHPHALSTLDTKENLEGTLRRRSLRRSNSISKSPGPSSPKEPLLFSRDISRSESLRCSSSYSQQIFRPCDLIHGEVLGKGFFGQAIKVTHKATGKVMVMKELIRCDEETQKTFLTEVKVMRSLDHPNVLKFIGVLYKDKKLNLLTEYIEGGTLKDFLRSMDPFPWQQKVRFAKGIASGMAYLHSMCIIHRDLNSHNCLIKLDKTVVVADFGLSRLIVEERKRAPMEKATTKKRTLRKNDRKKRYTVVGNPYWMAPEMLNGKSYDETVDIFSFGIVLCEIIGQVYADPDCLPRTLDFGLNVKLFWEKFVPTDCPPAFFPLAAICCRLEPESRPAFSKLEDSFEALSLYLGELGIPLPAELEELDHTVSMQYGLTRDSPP
Chain of DDR1 (Q08345 19-913): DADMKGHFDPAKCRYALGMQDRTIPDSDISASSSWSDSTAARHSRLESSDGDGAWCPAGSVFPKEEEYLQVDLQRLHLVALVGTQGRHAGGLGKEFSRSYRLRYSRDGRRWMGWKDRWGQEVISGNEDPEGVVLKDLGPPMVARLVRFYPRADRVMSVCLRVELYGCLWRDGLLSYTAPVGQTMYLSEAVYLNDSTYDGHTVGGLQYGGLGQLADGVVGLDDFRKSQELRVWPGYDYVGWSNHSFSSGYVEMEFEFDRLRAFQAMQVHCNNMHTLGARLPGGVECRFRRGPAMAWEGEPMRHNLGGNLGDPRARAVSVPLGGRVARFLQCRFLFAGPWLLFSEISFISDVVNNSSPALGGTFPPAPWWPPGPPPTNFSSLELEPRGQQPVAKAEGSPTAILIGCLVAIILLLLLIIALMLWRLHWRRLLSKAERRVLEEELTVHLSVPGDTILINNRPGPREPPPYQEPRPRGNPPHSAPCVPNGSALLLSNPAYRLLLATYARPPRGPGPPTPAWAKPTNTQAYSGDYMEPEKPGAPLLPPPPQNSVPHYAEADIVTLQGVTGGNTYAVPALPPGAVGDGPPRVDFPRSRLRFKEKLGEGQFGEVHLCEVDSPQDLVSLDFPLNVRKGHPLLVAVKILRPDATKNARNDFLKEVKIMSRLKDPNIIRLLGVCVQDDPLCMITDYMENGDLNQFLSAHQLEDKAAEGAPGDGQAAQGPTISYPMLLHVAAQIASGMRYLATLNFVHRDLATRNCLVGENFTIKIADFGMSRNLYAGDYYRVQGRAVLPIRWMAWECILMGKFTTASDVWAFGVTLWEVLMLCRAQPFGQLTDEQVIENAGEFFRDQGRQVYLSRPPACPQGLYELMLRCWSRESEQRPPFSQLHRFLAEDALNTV
Chain of FGR (P09769 whole entry): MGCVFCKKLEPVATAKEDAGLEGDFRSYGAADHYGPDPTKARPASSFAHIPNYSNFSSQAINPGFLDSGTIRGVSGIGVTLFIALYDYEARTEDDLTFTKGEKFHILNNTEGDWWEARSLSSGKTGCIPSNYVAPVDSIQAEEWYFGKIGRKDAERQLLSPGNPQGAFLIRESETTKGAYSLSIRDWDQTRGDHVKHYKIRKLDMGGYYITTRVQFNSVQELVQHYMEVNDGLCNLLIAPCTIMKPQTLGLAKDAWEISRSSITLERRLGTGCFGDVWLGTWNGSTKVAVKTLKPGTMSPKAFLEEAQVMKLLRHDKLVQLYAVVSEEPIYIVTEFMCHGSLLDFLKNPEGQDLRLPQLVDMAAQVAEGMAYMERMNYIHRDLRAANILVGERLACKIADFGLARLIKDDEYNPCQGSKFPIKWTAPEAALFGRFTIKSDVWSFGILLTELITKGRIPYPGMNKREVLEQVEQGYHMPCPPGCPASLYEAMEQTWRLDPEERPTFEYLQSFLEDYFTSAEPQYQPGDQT
Chain of TGFBR2 (P37173 23-567): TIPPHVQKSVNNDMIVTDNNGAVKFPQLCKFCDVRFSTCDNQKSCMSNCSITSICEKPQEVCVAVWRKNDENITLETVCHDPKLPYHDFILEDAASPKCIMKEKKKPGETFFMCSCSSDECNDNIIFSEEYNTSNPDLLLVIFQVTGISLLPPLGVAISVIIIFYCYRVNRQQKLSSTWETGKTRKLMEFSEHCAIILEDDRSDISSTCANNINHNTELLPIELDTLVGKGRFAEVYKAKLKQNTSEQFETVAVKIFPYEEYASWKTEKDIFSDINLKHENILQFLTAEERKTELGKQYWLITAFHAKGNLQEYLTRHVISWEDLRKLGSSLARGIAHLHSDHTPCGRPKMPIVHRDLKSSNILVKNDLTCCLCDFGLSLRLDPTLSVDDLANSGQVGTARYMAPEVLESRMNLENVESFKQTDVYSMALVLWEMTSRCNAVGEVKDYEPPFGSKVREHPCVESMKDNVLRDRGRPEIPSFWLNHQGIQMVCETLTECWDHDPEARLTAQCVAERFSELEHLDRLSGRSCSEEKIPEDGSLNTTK
Chain of ABL2 (P42684 whole entry): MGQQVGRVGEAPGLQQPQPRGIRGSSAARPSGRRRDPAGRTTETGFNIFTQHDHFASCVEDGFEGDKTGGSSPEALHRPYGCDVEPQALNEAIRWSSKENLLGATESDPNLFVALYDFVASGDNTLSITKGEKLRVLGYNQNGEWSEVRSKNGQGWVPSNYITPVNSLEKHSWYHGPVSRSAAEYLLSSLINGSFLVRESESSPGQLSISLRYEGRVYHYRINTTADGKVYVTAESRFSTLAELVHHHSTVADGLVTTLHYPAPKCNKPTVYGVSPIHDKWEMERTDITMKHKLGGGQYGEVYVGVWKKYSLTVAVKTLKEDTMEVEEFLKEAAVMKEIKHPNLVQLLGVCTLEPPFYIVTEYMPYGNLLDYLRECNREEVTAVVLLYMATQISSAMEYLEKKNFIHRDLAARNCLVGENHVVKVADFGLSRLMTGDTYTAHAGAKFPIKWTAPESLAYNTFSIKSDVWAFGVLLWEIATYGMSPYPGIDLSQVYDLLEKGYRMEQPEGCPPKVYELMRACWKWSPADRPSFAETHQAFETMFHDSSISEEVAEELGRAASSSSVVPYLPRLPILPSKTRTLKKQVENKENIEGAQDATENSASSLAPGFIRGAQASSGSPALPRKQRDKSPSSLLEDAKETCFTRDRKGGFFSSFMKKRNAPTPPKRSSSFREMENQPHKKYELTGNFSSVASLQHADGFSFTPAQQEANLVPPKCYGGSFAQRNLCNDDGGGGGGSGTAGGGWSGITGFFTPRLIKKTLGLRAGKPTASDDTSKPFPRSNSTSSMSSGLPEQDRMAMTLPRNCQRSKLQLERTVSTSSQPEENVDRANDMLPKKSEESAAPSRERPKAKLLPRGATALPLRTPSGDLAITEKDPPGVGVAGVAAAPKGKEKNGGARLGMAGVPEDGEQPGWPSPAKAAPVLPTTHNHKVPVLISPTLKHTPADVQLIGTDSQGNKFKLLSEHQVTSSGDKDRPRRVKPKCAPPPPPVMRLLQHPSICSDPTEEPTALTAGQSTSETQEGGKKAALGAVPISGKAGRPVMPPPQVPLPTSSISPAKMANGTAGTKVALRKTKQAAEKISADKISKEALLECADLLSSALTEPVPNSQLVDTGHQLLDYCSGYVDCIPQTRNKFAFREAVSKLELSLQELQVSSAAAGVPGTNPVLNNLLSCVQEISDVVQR
Chain of MKK7 (O14733 whole entry): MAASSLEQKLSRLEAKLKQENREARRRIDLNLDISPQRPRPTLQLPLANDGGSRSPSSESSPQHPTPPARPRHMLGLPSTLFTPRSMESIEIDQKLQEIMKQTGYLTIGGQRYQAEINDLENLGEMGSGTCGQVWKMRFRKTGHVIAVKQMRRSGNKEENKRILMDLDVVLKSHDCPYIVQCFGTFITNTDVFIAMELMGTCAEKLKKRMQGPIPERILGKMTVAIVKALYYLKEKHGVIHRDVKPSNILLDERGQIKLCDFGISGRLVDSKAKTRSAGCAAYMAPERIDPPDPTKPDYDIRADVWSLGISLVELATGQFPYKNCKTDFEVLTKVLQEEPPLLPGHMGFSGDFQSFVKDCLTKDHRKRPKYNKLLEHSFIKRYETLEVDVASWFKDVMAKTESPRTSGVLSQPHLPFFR

Compound | Percent Control [1] | remaining binding at 10 µM [2] | remaining binding at 10 µM [3] | remaining binding at 10 µM [4] | remaining binding at 10 µM [5] | remaining binding at 10 µM [6] | IC50 [7] | remaining binding at 10 µM [8] | remaining binding at 10 µM [9] | remaining binding at 10 µM [10] | remaining binding at 10 µM [11] | remaining binding at 10 µM [12] | remaining binding at 10 µM [13] | remaining binding at 10 µM [14] | remaining binding at 10 µM [15] | remaining binding at 10 µM [17] | remaining binding at 10 µM [18] | remaining binding at 10 µM [19] | remaining binding at 10 µM [20] | remaining binding at 10 µM [21] | also measured
COc1cc(N2CCC(N3CCN(C)CC3)CC2)ccc1Nc1ncc2c(n1)N(C)c1sc(C)nc1C(=O)N2 [Compound 3, 6-((2-methoxy-4-(4-(4-methylpiperazin-1-yl)piperidin-1-yl)phenyl)amino)-2,4-dimethyl-4,9-dihydro-10H-pyrimido[5,4-b]thiazolo[5,4-e][1,4]diazepin-10-one] | 100% | 89% | 65% | 67% | 78% | 19% | > 10 µM | 100% | 100% | 100% | 69% | 85% | 87% | 86% | 82% | 70% | 19% | 91% | 99% | 96% | remaining binding at 10 µM ([16]; MAPKAPX5, 10000 nM): 100%; remaining binding at 10 µM [22]: 77%; S-Score (35) [23]: 0.02; number of non-mutant kinases displaying <35% relative to control ([23]; out of 403 non-mutant kinases): five; number of other kinases engaged with greater than 65% inhibition ([23]; panel of 403 kinases): 4; remaining binding at 10 µM [24]: 100%; remaining binding at 10 µM [25]: 100%; remaining binding at 10 µM [26]: 81%; remaining binding at 10 µM [27]: 81%
COc1cc(N2CCC(N3CCN(C)CC3)CC2)ccc1Nc1ncc2c(n1)N(C)c1sc(C)nc1C(=O)N2C [Compound 5, 6-((2-methoxy-4-(4-(4-methylpiperazin-1-yl)piperidin-1-yl)phenyl)amino)-2,4,9-trimethyl-4,9-dihydro-10H-pyrimido[5,4-b]thiazolo[5,4-e][1,4]diazepin-10-one] | 93% | 100% | 100% | 100% | 91% | 100% | 7.6 µM | 100% | 100% | 93% | 95% | 95% | 100% | 100% | 100% | 100% | 95% | 98% | 100% | 98% | remaining binding at 10 µM ([16]; MAPKAPK5, 10000 nM): 93%; remaining binding at 10 µM [22]: 100%; S(1) [23]: 0.005; S(10) [23]: 0.012; S-Score (35) [23]: 0.042; remaining binding at 10 µM [24]: 97%; remaining binding at 10 µM [25]: 100%; remaining binding at 10 µM [26]: 100%; remaining binding at 10 µM [27]: 97%

From US12365696B2, “Small-molecule focal adhesion kinase (FAK) inhibitors” (DANA-FARBER CANCER INSTITUTE, INC., priority 2019, dated 2025)
